# Data as given in US5401647A, “Method of preparing Limulus amoebocyte lysate” (Seikagaku Kogyo Kabushiki Kaisha (Seikagaku Corporation), priority 1990, dated 1995).
# Biological target: T1, Limulus amoebocyte lysate factor G (Tachypleus tridentatus, UniProt Q27082)
# T1 construct: Prepared from Japanese horseshoe crab, T. tridentatus; from tissue; host or cells: amoebocyte (hemocyte) lysate of the Japanese horseshoe crab T. tridentatus, factor G fraction
# T1 sequence (Q27082 20-673): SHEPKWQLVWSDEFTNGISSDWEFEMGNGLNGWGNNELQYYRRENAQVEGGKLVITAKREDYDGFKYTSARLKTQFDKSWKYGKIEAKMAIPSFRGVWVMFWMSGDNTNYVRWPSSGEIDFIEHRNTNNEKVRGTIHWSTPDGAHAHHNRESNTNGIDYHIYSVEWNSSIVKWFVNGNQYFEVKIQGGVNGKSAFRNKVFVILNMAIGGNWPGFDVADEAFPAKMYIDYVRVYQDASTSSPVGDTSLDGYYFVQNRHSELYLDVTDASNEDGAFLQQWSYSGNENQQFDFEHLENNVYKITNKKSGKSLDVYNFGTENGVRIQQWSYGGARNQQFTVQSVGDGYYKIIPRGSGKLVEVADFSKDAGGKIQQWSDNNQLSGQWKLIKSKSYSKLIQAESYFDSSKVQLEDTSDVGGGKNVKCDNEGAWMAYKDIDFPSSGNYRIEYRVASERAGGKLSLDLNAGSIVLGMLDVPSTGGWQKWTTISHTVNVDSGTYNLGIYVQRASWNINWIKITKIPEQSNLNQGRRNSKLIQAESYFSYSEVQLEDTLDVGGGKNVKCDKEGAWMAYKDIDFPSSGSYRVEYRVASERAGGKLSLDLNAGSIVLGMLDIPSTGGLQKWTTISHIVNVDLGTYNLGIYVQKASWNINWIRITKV
# T1 sequence (Q27083 32-309 partner): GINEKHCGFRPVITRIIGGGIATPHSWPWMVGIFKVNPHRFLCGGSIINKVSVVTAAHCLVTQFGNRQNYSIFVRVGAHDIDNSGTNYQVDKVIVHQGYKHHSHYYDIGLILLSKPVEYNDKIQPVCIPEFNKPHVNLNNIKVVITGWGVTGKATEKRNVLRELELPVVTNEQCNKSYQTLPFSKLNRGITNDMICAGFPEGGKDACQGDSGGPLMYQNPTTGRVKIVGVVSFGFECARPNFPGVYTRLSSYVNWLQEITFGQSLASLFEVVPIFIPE
# Experiment: Activation titer determination method of factor G activation inhibiting substance (GI)
# Type: biochemical, T. tridentatus
# Conditions: 10 pg GA (No. 106); 37° C., 30 minutes; GI amount causing 100% inhibition of factor G activation = 100 units
# Protocol: The factor G activation inhibitory titer was measured according to the following activation titer determination method of factor G activation inhibiting substance and represented as units per mg. Activation titer determination method of factor G activation inhibiting substance (hereinafter, sometimes abbreviated as GI)
# A 200 μl portion of a reaction mixture has the following composition. […]
# After incubating the above-described reaction mixture at 37° C. for 30 minutes, 0.5 ml each of 0.04% sodium nitrite (0.48M HCl solution), 0.3% ammonium sulfamate and 0.07% N-1-naphthylethylenediamine dihydrochloride was added to the reaction mixture to effect coloration by diazo-coupling. The amount of released pNA was determined by measuring an absorbance at 545 nm (A545). GI activity was calculated according to the following equation; [formula]
# Under these conditions, the GI amount which causes 100% inhibition of an activation of factor G by GA is defined as 100 units.
# (Note 1) Water-insoluble samples are dissolved in 0.3M NaOH and neutralized with an equal volume of 0.3M HCl.
# (Note 2) GPC fractionation-purified product of the curdian sonicated product prepared in the above-described Preparation Example 5 (Table-2, No. 106, molecular weight 216,000).
# (Note 3) Prepared from Japanese horseshoe crab, T. tridentatus according to the article [T. Obayasi et al., Clin. Chim. Acta., 149, 55-65 (1985)].
row,Compound,Factor G Activation Inhibitory Titer
1,"OC[C@H]1O[C@@H](O[C@H]2[C@H](O)[C@@H](CO)OC(O)[C@@H]2O)[C@H](O)[C@@H](O)[C@@H]1O (some centres unmarked) [compound 5, Laminaribiose]",214 unit/mg
2,"OC[C@H]1O[C@@H](O[C@@H]2[C@@H](O)[C@H](O[C@H]3[C@H](O)[C@@H](CO)OC(O)[C@@H]3O)O[C@H](CO)[C@H]2O)[C@H](O)[C@@H](O)[C@@H]1O (some centres unmarked) [compound 6, Laminaritriose]","4,670 unit/mg"
3,"OC[C@H]1O[C@@H](O[C@@H]2[C@@H](O)[C@H](O[C@@H]3[C@@H](O)[C@H](O[C@H]4[C@H](O)[C@@H](CO)OC(O)[C@@H]4O)O[C@H](CO)[C@H]3O)O[C@H](CO)[C@H]2O)[C@H](O)[C@@H](O)[C@@H]1O (some centres unmarked) [compound 7, Laminaritetraose]","20,000 unit/mg"
4,"OC[C@H]1O[C@@H](O[C@@H]2[C@@H](O)[C@H](O[C@@H]3[C@@H](O)[C@H](O[C@@H]4[C@@H](O)[C@H](O[C@H]5[C@H](O)[C@@H](CO)OC(O)[C@@H]5O)O[C@H](CO)[C@H]4O)O[C@H](CO)[C@H]3O)O[C@H](CO)[C@H]2O)[C@H](O)[C@@H](O)[C@@H]1O (some centres unmarked) [compound 8, Laminaripentaose]","39,800 unit/mg"
5,"OC[C@H]1O[C@@H](O[C@@H]2[C@@H](O)[C@H](O[C@@H]3[C@@H](O)[C@H](O[C@@H]4[C@@H](O)[C@H](O[C@@H]5[C@@H](O)[C@H](O[C@H]6[C@H](O)[C@@H](CO)OC(O)[C@@H]6O)O[C@H](CO)[C@H]5O)O[C@H](CO)[C@H]4O)O[C@H](CO)[C@H]3O)O[C@H](CO)[C@H]2O)[C@H](O)[C@@H](O)[C@@H]1O (some centres unmarked) [compound 9, Laminarihexaose]","55,000 unit/mg"
6,"OC[C@H]1O[C@@H](O[C@@H]2[C@@H](O)[C@H](O[C@@H]3[C@@H](O)[C@H](O[C@@H]4[C@@H](O)[C@H](O[C@@H]5[C@@H](O)[C@H](O[C@@H]6[C@@H](O)[C@H](O[C@H]7[C@H](O)[C@@H](CO)OC(O)[C@@H]7O)O[C@H](CO)[C@H]6O)O[C@H](CO)[C@H]5O)O[C@H](CO)[C@H]4O)O[C@H](CO)[C@H]3O)O[C@H](CO)[C@H]2O)[C@H](O)[C@@H](O)[C@@H]1O (some centres unmarked) [compound 10, Laminariheptaose]","103,000 unit/mg"
7,"OC[C@H]1OC(O)[C@H](O)[C@@H](O)[C@@H]1O (some centres unmarked) [compound 108, Glucose]",< 100 unit/mg
8,Partially carboxymethylated (1→3)-β-D-glucan (DS = 0.03) GPC fraction 1 [compound 39],"117,000 unit/mg"
9,Partially carboxymethylated (1→3)-β-D-glucan (DS = 0.03) GPC fraction 2 [compound 40],"91,200 unit/mg"
10,Partially carboxymethylated (1→3)-β-D-glucan (DS = 0.03) GPC fraction 3 [Sample No. 41],"80,000 unit/mg"
11,Partially carboxymethylated (1→3)-β-D-glucan (DS = 1.20) [compound 107],< 100 unit/mg
12,Partially carboxymethylated laminaran [compound 42],"3,630,000 unit/mg"
13,Partially methylated (1→3)-β-D-glucan [compound 43],"93,300 unit/mg"
14,Partially sulfated laminaran [compound 44],"117,000 unit/mg"
